Several values for one entry are separate records, joined by “and”; a condition that tells them apart may be missing. Identical values can stand only once. Entries after “also recorded” stand apart in the source; their conditions may differ.

The test system of one assay is HUVEC. Kind of assay: Wound assay, migration of human endothelial cells. The format is cell-based. The conditions noted are these: 18 hours; 497C-T2 0.83 and 1.66 μM; 497C-T3 2.4 μM; 497C-T4 3.52 μM; 497C-T5 3.65 μM; C-terminal tail 4.92 μM. As to the method: Cell migration was tested by the wound assay described by Sato and Rifkin (J Cell Biol. 1988; 107:1199) with few modifications. HUVEC grown in growth medium EGM-2MV (Cambrex) were seeded in 24-well plates at 80 000 cells per well in 500 μL of growth medium and grown to confluence at 37° C. in a humidified atmosphere containing 5% CO2. Cells were scrapped with a plastic tip on one line only. After wounding, the culture medium was changed for fresh medium (control, FIG. 3a) or fresh medium supplemented with: • FIG. 3b: 497C-T2 20 μg/mL (0.83 μM) • FIG. 3c: 497C-T2 40 μg/mL (1.66 μM) • FIG. 3d: 497C-T3 48 μg/mL (2.4 μM) • FIG. 3e: 497C-T4 60 μg/mL (3.52 μM) • FIG. 3f: 497C-T5 61 μg/mL (3.65 μM) • FIG. 3g: C-terminal tail 63 μg/mL (4.92 μM)
After 18 hours of culture, cells were observed and photographed under the inverted microscope (Analysis, Olympus, Rungis, France).

For the next assay, the system named is NCI H460 human tumor. Nature of the assay: NCI H460 human tumor xenograft in Swiss Nude mice, tumor growth. The format is in vivo. Details: key to MRTV D28 / MRTV D12 / MRTV D14 / MRTV D16 / MRTV D18 / MRTV D20 / MRTV D22 / MRTV D24 / MRTV D26: ratio of mean tumor volume at day t to volume at injection (D12). As for the experimental part: NCI H460 cells were cultured as adherent cells in complete RPMI 1640 medium (Ref. CM1RRM08-01, batch No. 623615, Eurobio, France) containing 2 mM L-Glutamine, adjusted to 4.5 g/L glucose (Ref. G7528, batch No. 033K0121, Sigma, France) and supplemented with 10 mM HEPES (Ref. H0887, batch No. 113K2338, Sigma, France), 1.0 mM sodium pyruvate (Ref. CSTVAT00-0U, batch No. 520818, Sigma, France) and 10% fetal calf serum (FCS; Ref. CVFSVF00-01, batch No. S13021, Eurobio, France) under a 37° C., 5% CO2 humidified atmosphere. They were amplified in 75 cm^2-flasks to reach 90×10^6 cells.
At D0, NCI H460 cells (human lung carcinoma) were collected from 75 cm^2-flasks by removing the medium and adding 3 ml of trypsine-EDTA (Ref. CEZTDA00-0U, batch No. 633920, Eurobio, France). After 5 min of incubation at 37° C., cells were detached from the plastic and the enzymatic reaction was stopped by adding 3 ml of RPMI 1640 medium containing 10% fetal calf serum. Cells were then centrifuged at 700 g for 5 min at room temperature. They were resuspended in serum-free RPMI 1640 culture medium containing L-Glutamine (2 mM), glucose (4.5 g/l), sodium pyruvate (1 mM) and buffered with HEPES (10 mM). Cells were counted and the number of viable NCI H460 cells was >99%. The number of cells was then adjusted to 25.10^6 cells/ml in serum-free medium.
NCI H460 cells (5.10^6 cells/mouse in 200 μL of serum-free medium) were then implanted subcutaneously in the right flank of each mouse.
At D12 post-implantation of the NCI H460 cells, the thirty mice were randomized into six groups of 5 mice. Tumor volumes had reached 228 to 468 mm^3 and mean tumor volumes were not statistically different between groups after randomization.
All solutions were injected IP.
Animals have been observed daily.
• Tumor growth curves were drawn using the mean tumor volumes (MTV), • Mean Relative tumor volume (MRTV) was calculated as the ratio between the MTV at time t and the volume at the time of injection (t=D12), • Tumor growth inhibition (T/C, %) was evaluated as the ratio of the median tumor volumes of treated groups versus vehicle group.
Statistical analyses of tumor volumes (V), time to reach ‘V’, tumor-doubling time (DT), relative tumor volume (RTV) and tumor growth inhibition (T/C) were performed for all groups. Data are expressed as mean±SD. Groups of data were normally distributed. Univariate analysis were performed to assess differences between groups. Statistical significance was then determined using the Student's t test. A P<0.05 was considered as statistically significant. The Statistical analysis was performed using XLSTAT (Addinsoft, France).
In general terms: In xenograft studies the graft and the host belong to different species.

A further assay concerns CALU-6 tumors. Kind of assay: CALU-6 non-small cell lung cancer xenograft in Swiss Nude mice, tumor growth. The format is in vivo. The conditions noted are these: IP Q2DX8, CDDP 5 mg/kg (G2), 497C-T2 10 mg/kg (G3), 497C-T2 10 mg/kg + CDDP 5 mg/kg (G4). As to the method: CALU-6 cells were cultured as adherent cells in complete EMEM medium (Ref. CM1MEM18-01, batch No. 462502, Eurobio, France) 10% fetal calf serum (FCS; Ref. CVFSVF00-01, batch No. 513021, Eurobio, France) under a 37° C., 5% CO2 humidified atmosphere. They were amplified in 75 cm^2-flasks to reach 90×10^6 cells.
At D0, CALU-6 cells (human lung carcinoma) were collected from 75 cm^2-flasks by removing the medium and adding 3 ml of trypsine-EDTA (Ref. CEZTDA00-0U, batch No. 633920, Eurobio, France). After 5 min of incubation at 37° C., cells had detached from the plastic and the enzymatic reaction was stopped by adding 3 ml of EMEM medium containing 10% fetal calf serum. Cells were then centrifuged at 700 g for 5 min at room temperature. They were resuspended in serum-free EMEM culture medium. Cells were counted and viability assessment by Trypan Blue exclusion (Ref. CSTCOL03-OU, batch No. 434511, Eurobio, France). The number of viable CALU-6 cells was >99%. The number of cells was then adjusted to 25×10^6 cells/ml in serum-free medium.
CALU-6 cells 5×10^6 cells/mouse in 200 μl of serum-free medium) were then implanted subcutaneously in the right flank of each mouse.
At D12 post-implantation of the CALU-6 cells, the thirty mice were randomized into six groups of 5 mice. Tumor volumes had reached 228 to 468 mm^3 and mean tumor volumes were not statistically different between groups after randomization.
Mean tumor volumes (MTV), mean relative tumor volume (MRTV) and tumor growth inhibition (T/C) were calculated as for example 7.

Where [1] appears, read: IP Q2DX8, CDDP 5 mg/kg (G2), 497C-T2 10 mg/kg (G3), 497C-T2 10 mg/kg + CDDP 5 mg/kg (G5).

As to “497C-T5: d2 and e domains of the LEL domain of protein 497C, SEQ ID NO:6 (43 amino acids) (MNETDCNPQDLHNLTVAATKVNQKGCYDLVTSFMETNMGIIAG; listed as Homo sapiens)”, the “inhibition of endothelial cell migration” value in the assay with HUVEC was “very limited anti-migratory activity; also recorded: limited activities relative to that of 497C-T2”.
Turning to “497C-T4: d1, d2 and e domains of the LEL domain of protein 497C, SEQ ID NO:5 (49 amino acids) (IPPSCCMNETDCNPQDLHNLTVAATKVNQKGCYDLVTSFMETNMGIIAG; listed as Homo sapiens)”, the “inhibition of endothelial cell migration” value in the assay with HUVEC is “less active than 497C-T2; also recorded: limited activities relative to that of 497C-T2”.
Turning to `N.N.[Cl][Pt][Cl]` [Cisplatin, cis-diamineplatinum (II) dichloride, reference compound], the “reduction of tumor size compared to the vehicle-treated group 1” value in the assay on NCI H460 human tumor (D28, CDDP 5 mg/kg IP Q2DX8 (G2)) was found to be 68%. For the same molecule, in the assay on NCI H460 human tumor (setting [1]), the “DT (doubling time of tumor volume)” value was 5.12 ± 2.89 days and 5.12 days; the “MRTV D14” value is 1.59; the “MRTV D16” value amounted to 1.74; the “MRTV D18” value is 2.30. Further, in the assay on NCI H460 human tumor (setting [1]), the “MRTV D20” value is reported as 2.29, the “MRTV D22” value turned out to be 3.39, the “MRTV D24” value was 3.67 and the “MRTV D26” value is given as 3.67. In addition, in the assay on NCI H460 human tumor (setting [1]), the “MRTV D28” value came out at 4.88; the “MTV at D14” value is on record as 513.35 mm^3; the “MTV at D24” value worked out at 1083.74 mm^3; the “MTV at D28” value was 1440±1097 mm^3 and 1440.18 mm^3. Also, in the assay with NCI H460 human tumor (reference day, IP Q2DX8, CDDP 5 mg/kg (G2), 497C-T2 10 mg/kg (G3), 497C-T2 10 mg/kg + CDDP 5 mg/kg (G5)), the “MRTV D12” value came to 1.00. In the assay with CALU-6 tumors, the “MRTV D14” value was determined as 3.11, the “MRTV D16” value was 2.39, the “MRTV D18” value came to 2.66 and the “MRTV D20” value worked out at 3.08. In addition, in the assay on CALU-6 tumors, the “MRTV D22” value was 3.70, the “MRTV D24” value is listed as 4.84, the “MRTV D26” value is recorded as 4.11 and the “MRTV D28” value came out at 5.98. For the same molecule, the “MTV at D28” value with CALU-6 tumors amounted to 742.44±215.85 mm^3. Besides, the “MRTV D12” value in the assay on CALU-6 tumors (reference day) is on record as 1.

B1: 497C-T3: c, d1, d2 and e domains of the LEL domain of protein 497C, SEQ ID NO:4 (74 amino acids) (protein, listed as Homo sapiens)
chain: QRSLSCCGVQNYTNWSTSPYFLEHGIPPSCCMNETDCNPQDLHNLTVAATKVNQKGCYDLVTSFMETNMGIIAG
Take B1: the “inhibition of endothelial cell migration” value in the assay with HUVEC is recorded as “inhibited cell migration similarly to the protein 497C-T2; also recorded: almost as potent than 497C-T2”.

These data come from US8372810B2, “Anti-tumor drug, medicament, composition, and use thereof” (Gene Signal International SA, priority 2007, dated 2013).
